Measured values published in patent US11696914B1 (priority 2019, dated 2023).
“And” between values parts separate entries of the source, which are not always exact repeats. Equal entries are not always repeated. Where two headings read alike, the source gives them in different places.

Key:
HeLa cells [1] = system: HeLa cells
[2] = mouse, microsomes
[3] = guinea pig, microsomes
[4] = microsomes; for t1/2: monkey
[5] = human, microsomes
[6] = mouse, microsomes, 1 h, pH 7.4
[7] = guinea pig, pH 7.4
[8] = human, microsomes, 1 h
in vitro [9] = details: mouse, microsomes
in vitro [10] = details: guinea pig, microsomes
in vitro [11] = details: microsomes
in vitro [12] = details: human, microsomes
Sudan virus = details: guinea pig, in vivo; cited from earlier work
SARS-CoV-2 = experiment: microbe, parasite or virus in culture; type: cell-based
[13] = system: Vesicular Stomatitis Virus (VSV) pseudotyped with EBOV glycoprotein; experiment: microbe, parasite or virus in culture; type: cell-based, Ebola virus; details: HeLa, read-out: IC50, inhibition of EBOV-VSV pseudovirus entry
[14] = system: Marburg virus (MARV), Musoke strain; experiment: organism not typed; type: cell-based; details: HeLa; n=6; read-out: IC50 ± SEM versus MARV Musoke strain
[15] = system: Ebola virus/H.sapiens-tc/COD/1995/Kikwit-9510621 (EBOV/Kik); experiment: microbe, parasite or virus in culture; type: cell-based; details: Zaire ebolavirus, HeLa
[16] = system: Ebola virus/H.sapiens-tc/GIN/2014/Makona-005 (EBOV/Mak); experiment: microbe, parasite or virus in culture; type: cell-based; details: Zaire ebolavirus, HeLa
[17] = system: Ebola virus/H.sapiens-tc/COD/1976/Yambuku-Mayinga (EBOV/May); experiment: microbe, parasite or virus in culture; type: cell-based; details: Zaire ebolavirus, HeLa
[18] = system: Marburg virus/H.sapiens-tc/AGO/2005/Ang-1379v (MARV/Ang); experiment: organism not typed; type: cell-based; details: HeLa
[19] = system: Marburg virus/H.sapiens-tc/KEN/1980/Mt. Elgon-Musoke (MARV/Mus); experiment: organism not typed; type: cell-based; details: HeLa
Chikungunya virus = experiment: microbe, parasite or virus in culture; type: cell-based; details: Vero 76
Ebola virus = experiment: microbe, parasite or virus in culture; type: cell-based; details: Zaire ebolavirus, Vero 76
Influenza A virus H1N1 = experiment: microbe, parasite or virus in culture; type: cell-based; details: H1N1, MDCK
MERS coronavirus = experiment: microbe, parasite or virus in culture; type: cell-based; details: Middle East respiratory syndrome-related coronavirus, Vero 76
Poliovirus 3 = experiment: microbe, parasite or virus in culture; type: cell-based; details: Enterovirus C, Vero 76
Tacaribe virus = experiment: microbe, parasite or virus in culture; type: cell-based; details: Mammarenavirus tacaribeense, Vero 76
[20] = system: Venezuelian equine encephalitis virus; experiment: microbe, parasite or virus in culture; type: cell-based; details: Venezuelan equine encephalitis virus, Vero 76
Yellow Fever virus = experiment: microbe, parasite or virus in culture; type: cell-based; details: Vero 76
EBOV Zaire = experiment: microbe, parasite or virus in culture; type: cell-based, Ebola virus; details: Zaire ebolavirus, HeLa
[21] = system: murine hepatitis virus (MHV); experiment: microbe, parasite or virus in culture; type: cell-based; details: Murine coronavirus, read-out: IC50 versus murine hepatitis virus (MHV)
SARS-CoV-2 Spike RBD = SARS-CoV-2 Spike RBD (Severe acute respiratory syndrome coronavirus 2, UniProt P0DTC2); type: binding
HeLa cells [22] = details: human
Hartley guinea pigs = details: guinea pig, in vivo
[23] = Hartley, guinea pig, in vivo, po, 30 mg/kg
Vero 76 = details: African green monkey
in vivo [24] = details: both, Hartley, guinea pig, po
in vivo [25] = details: Hartley, guinea pig, po; for AUC(0-t): AUClast Mean; for Cmax: Cmax Mean; for half-life: T1/2
in vitro [26] = details: dog
in vitro [27] = details: human
EBOV = details: human, in vivo; cited from earlier work
[28] = Severe acute respiratory syndrome coronavirus 2, A549-ACE2, read-out: IC50 against SARS-CoV-2

With C[C@H]1[C@H](OC(=O)CCC(=O)O)O[C@@H]2O[C@@]3(C)CC[C@H]4[C@H](C)CC[C@@H]1[C@@]24OO3 [Artesunate] the “effect on toxicity of pyronaridine in the checkboard assay” value (HeLa cells [1]) was “ameliorates the toxicity of pyronaridine”.

With CCN(CC)CCCC(C)Nc1ccnc2cc(Cl)ccc12 (stereo not drawn) [Chloroquine] the Clint [2] was 29.3, the “Dextromethorphan: compound, t1/2 normalized to dextromethorphan control” value [2] was 2.7 and the t1/2 [2] was 47.3 min. The Clint [3] was 10.5, the “Dextromethorphan: compound, t1/2 normalized to dextromethorphan control” value [3] was 42.1 and the t1/2 [3] was 132.6 min. The Clint [4] was 13.0, the “Dextromethorphan: compound, t1/2 normalized to dextromethorphan control” value [4] was 19.1 and the t1/2 [4] was 106.8 min. The Clint [5] was 6.9, the “Dextromethorphan: compound, t1/2 normalized to dextromethorphan control” value [5] was 10.3 and the t1/2 [5] was 201.4 min. For the same molecule, the “Relative Peak Area/Abundance MLM” value [6] was 42.5%, the “Relative Peak Area/Abundance GPLM” value [7] was 43.3% and the “Relative Peak Area/Abundance HLM” value ([8]; pH 7.4) was 56.7%.

For COc1ccc2c(c1)[C@]13CCCC[C@@H]1[C@H](C2)N(C)CC3 [Dextromethorphan], the half-life (in vitro [9]; Dextromethorphan t1/2) was 16.2 min, the half-life (in vitro [9]; t1/2 of CYP probe controls) was 13.2 min and the half-life (in vitro [10]; Dextromethorphan t1/2) was 3.2 min. For the same molecule, the half-life (in vitro [10]; t1/2 of CYP probe controls) was 2.9 min, the half-life (in vitro [11]; monkey) was 6.69 min and the half-life (in vitro [11]; non-human primate) was 5.7 min. The half-life (in vitro [12]; Dextromethorphan t1/2) was 19.7 min and the half-life (in vitro [12]; t1/2 of CYP probe controls) was 14.8 min.

In the case of O=C(O)Cc1ccccc1Nc1c(Cl)cccc1Cl [Diclofenac], the “t1/2 of CYP probe controls” value [2] is reported as 39.6 min and the half-life (in vitro [11]; monkey) is reported as 43.1 min.

For NC(=O)c1nc(F)c[nH]c1=O [Favipiravir], the “survival rates in Sudan virus-infected guinea pigs” value (Sudan virus) is listed as 83-100%.

In the case of COc1ccc2nc3cc(Cl)ccc3c(N)c2n1 [M11], the “Relative Peak Area/Abundance HLM” value [8] is reported as 0.2%.

With Cc1ncc2n1-c1ccc(Cl)cc1C(c1ccccc1F)=NC2 [Midazolam] the half-life (in vitro [9]; t1/2 of CYP probe controls) was 1.68 min, the half-life (in vitro [10]; t1/2 of CYP probe controls) was 3.75 min and the half-life (in vitro [11]; monkey) was 4.3 min. The half-life (in vitro [12]; t1/2 of CYP probe controls) was 2.35 min.

COc1ccc2[nH]c([S+]([O-])Cc3ncc(C)c(OC)c3C)nc2c1 (stereo not drawn) [Omeprazole] showed a half-life (in vitro [10]; t1/2 of CYP probe controls) of 34 min, a half-life (in vitro [11]; monkey) of 25.5 min and a half-life (in vitro [12]; t1/2 of CYP probe controls) of 23.5 min.

For CCC(CC)COC(=O)[C@H](C)N[P@](=O)(OC[C@H]1O[C@@](C#N)(c2ccc3c(N)ncnn23)[C@H](O)[C@@H]1O)Oc1ccccc1 [Remdesivir], the IC50 (SARS-CoV-2; [28]) was about 147 nM.

Molecule CCN(CC)CCOc1ccc2c(c1)C(=O)c1cc(OCCN(CC)CC)ccc1-2 [Tilorone] has an IC50 [13] of 5 µM, an IC50 [14] of 1940 ± 304 nM and an IC50 [15] of 1480 ± 470 nM. It also gave an IC50 [16] of 1140 ± 380 nM, an IC50 [17] of 1210 ± 1070 nM and an IC50 [18] of 4.51 ± 1.93 µM. It also gave an IC50 [19] of 2050 ± 280 nM, an EC50 (Chikungunya virus) of 4.2 µM and an EC50 (Ebola virus) of over 11 µM. It also gave an EC50 (Influenza A virus H1N1) of over 19 µM, an EC50 (MERS coronavirus) of 3.7 µM and an EC50 (Poliovirus 3) of over 25 µM. The EC50 (Tacaribe virus) was 29 µM, the EC50 [20] was 18 µM and the EC50 (Yellow Fever virus) was over 12 µM. For the same molecule, the EC50 (EBOV Zaire) was 230 nM, the IC50 (SARS-CoV-2; [28]) was under 200 nM and the IC50 (SARS-CoV-2; read-out: IC50 against SARS-CoV-2) was ~180 nM and 180 nM. It also gave an IC50 [21] of about 20 µM, a Kd (SARS-CoV-2 Spike RBD; pH5.2) of 631 nM and a Kd (SARS-CoV-2 Spike RBD; pH 7.4) of 339 nM. For the same molecule, the CC50 (HeLa cells [22]) was 18 ± 3.04 µM, the Clint [2] was 13.5 and the “Dextromethorphan: compound, t1/2 normalized to dextromethorphan control” value [2] was 6.3. For the same molecule, the t1/2 [2] was 102.7 min, the Clint [3] was 113.7 and the “Dextromethorphan: compound, t1/2 normalized to dextromethorphan control” value [3] was 3.9. For the same molecule, the t1/2 [3] was 12.2 min, the Clint [4] was 14.7 and the “Dextromethorphan: compound, t1/2 normalized to dextromethorphan control” value [4] was 16.9. The t1/2 [4] was 94.3 min, the Clint [5] was 10.9 and the “Dextromethorphan: compound, t1/2 normalized to dextromethorphan control” value [5] was 6.5. The t1/2 [5] was 127.1 min, the “Relative Peak Area/Abundance MLM” value [6] was 62.9% and the “Relative Peak Area/Abundance GPLM” value [7] was 35.5%. For the same molecule, the “Relative Peak Area/Abundance HLM” value ([8]; pH 7.4) was 54.9%, the tolerability (Hartley guinea pigs) was “relatively well tolerated” and the mortality and morbidity (Hartley guinea pigs; po, 100 mg/kg) was “significant mortality and morbidity”. The “AUClast Mean” value ([23]; female) was 1340 ng·h/mL, the “AUClast Mean” value ([23]; male) was 1230 ng·h/mL and the T1/2 ([23]; male) was 13.3 h. For the same molecule, the CC50 (Vero 76) was 32 µM, the MTD (in vivo [24]) was 30 mg/kg and the AUC(0-t) (in vivo [25]; female, 30 mg/kg) was 1140 ng·h/mL. The Cmax (in vivo [25]; female, 30 mg/kg) was 246 ng/mL, the half-life (in vivo [25]; female, 30 mg/kg) was 858 min and the Tmax (in vivo [25]; female, 30 mg/kg) was 0.5 h. For the same molecule, the AUC(0-t) (in vivo [25]; female, 100 mg/kg) was 3330 ng·h/mL, the Cmax (in vivo [25]; female, 100 mg/kg) was 384 ng/mL and the half-life (in vivo [25]; female, 100 mg/kg) was 1040 min. It also gave a Tmax (in vivo [25]; female, 100 mg/kg) of 1 h, an AUC(0-t) (in vivo [25]; female, 200 mg/kg) of 4680 ng·h/mL and a Cmax (in vivo [25]; female, 200 mg/kg) of 448 ng/mL. The Tmax (in vivo [25]; female, 200 mg/kg) was 1 h, the AUC(0-t) (in vivo [25]; male, 30 mg/kg) was 1020 ng·h/mL and the Cmax (in vivo [25]; male, 30 mg/kg) was 148 ng/mL. For the same molecule, the half-life (in vivo [25]; male, 30 mg/kg) was 936 min, the Tmax (in vivo [25]; male, 30 mg/kg) was 1 h and the AUC(0-t) (in vivo [25]; male, 100 mg/kg) was 2690 ng·h/mL. For the same molecule, the Cmax (in vivo [25]; male, 100 mg/kg) was 225 ng/mL, the Tmax (in vivo [25]; male, 100 mg/kg) was 1 h and the AUC(0-t) (in vivo [25]; male, 200 mg/kg) was 5750 ng·h/mL. The Cmax (in vivo [25]; male, 200 mg/kg) was 355 ng/mL, the half-life (in vivo [25]; male, 200 mg/kg) was 1740 min and the Tmax (in vivo [25]; male, 200 mg/kg) was 1 h. The CC50 (in vitro [26]) was 19 µM and the CC50 (in vitro [27]) was 6.5 µM.

B1: mAb114 (antibody, chains of the INN, looked up, V domains shown)
VH: EVQLVESGGGLIQPGGSLRLSCAASGFALRMYDMHWVRQTIDKRLEWVSAVGPSGDTTYADSVKGRFAVSRENAKNSLSLQMNSLTAGDTAIYYCVRSDRGVAGLFDSWGQGILVTVSS
VL: DIQMTQSPSSLSASVGDRITITCRASQAFDNYVAWYQQRPGKVPKLLISAASALHAGVPSRFSGSGSGTHFTLTISSLQPEDVATYYCQNYNSAPLTFGGGTKVEIK
For B1, the “overall survival rate in EBOV patients” value (EBOV) is listed as 66%.
